Laboratory results: ChEMBL document CHEMBL1201862, “PubChem BioAssay data set” (2004)
Where a name gives a salt, the structure may show the parent alone. Calls of active or inactive are those of the source.

How the values were obtained:
[1] = molecular target: T1, Polyadenylate-binding protein 1 (Homo sapiens, UniProt P11940); test: PABP1 MLLE–PAM2 interaction inhibitors, dose response, miRNA deadenylation inhibitor project, biochemical, fluorescence polarization, Cy5-PAM2 peptide, secondary (AID 602260); format: functional; details: read-out: IC50_Mean
T1 sequence (P11940 whole entry): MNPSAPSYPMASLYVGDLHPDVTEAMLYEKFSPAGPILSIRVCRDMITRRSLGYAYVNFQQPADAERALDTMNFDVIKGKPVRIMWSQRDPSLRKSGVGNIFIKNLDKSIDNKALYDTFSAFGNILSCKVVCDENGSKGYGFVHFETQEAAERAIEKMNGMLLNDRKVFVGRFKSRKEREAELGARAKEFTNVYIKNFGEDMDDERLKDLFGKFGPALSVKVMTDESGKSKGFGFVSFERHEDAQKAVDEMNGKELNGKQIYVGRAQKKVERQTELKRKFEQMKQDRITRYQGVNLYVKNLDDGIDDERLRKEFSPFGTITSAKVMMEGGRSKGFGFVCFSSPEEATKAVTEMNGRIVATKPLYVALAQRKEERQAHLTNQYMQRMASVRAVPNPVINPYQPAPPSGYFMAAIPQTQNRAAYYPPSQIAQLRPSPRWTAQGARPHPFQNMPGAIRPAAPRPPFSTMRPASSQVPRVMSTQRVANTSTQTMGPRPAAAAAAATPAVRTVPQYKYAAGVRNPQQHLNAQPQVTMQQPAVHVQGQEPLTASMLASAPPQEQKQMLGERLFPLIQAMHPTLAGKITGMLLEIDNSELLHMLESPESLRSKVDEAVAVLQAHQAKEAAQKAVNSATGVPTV

[2] = molecular target: T1, Polyadenylate-binding protein 1; test: PABP1 MLLE–PAM2 binding inhibitor potency, dose response, biochemical, fluorescence polarization, FITC-PAM2 peptide (AID 602259); format: functional; details: read-out: IC50_Mean
[3] = molecular target: T2, Fatty acid synthase (Homo sapiens, UniProt P49327); test: FAS thioesterase domain inhibitors, dose response, biochemical, endpoint fluorescence intensity, uHTS hits (AID 624327); format: functional;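 also: fluorescence from hydrolysis of an O-methyl fluorescein acyl ester substrate by the enzyme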
T2 sequence (P49327 whole entry, the tested form may be a part): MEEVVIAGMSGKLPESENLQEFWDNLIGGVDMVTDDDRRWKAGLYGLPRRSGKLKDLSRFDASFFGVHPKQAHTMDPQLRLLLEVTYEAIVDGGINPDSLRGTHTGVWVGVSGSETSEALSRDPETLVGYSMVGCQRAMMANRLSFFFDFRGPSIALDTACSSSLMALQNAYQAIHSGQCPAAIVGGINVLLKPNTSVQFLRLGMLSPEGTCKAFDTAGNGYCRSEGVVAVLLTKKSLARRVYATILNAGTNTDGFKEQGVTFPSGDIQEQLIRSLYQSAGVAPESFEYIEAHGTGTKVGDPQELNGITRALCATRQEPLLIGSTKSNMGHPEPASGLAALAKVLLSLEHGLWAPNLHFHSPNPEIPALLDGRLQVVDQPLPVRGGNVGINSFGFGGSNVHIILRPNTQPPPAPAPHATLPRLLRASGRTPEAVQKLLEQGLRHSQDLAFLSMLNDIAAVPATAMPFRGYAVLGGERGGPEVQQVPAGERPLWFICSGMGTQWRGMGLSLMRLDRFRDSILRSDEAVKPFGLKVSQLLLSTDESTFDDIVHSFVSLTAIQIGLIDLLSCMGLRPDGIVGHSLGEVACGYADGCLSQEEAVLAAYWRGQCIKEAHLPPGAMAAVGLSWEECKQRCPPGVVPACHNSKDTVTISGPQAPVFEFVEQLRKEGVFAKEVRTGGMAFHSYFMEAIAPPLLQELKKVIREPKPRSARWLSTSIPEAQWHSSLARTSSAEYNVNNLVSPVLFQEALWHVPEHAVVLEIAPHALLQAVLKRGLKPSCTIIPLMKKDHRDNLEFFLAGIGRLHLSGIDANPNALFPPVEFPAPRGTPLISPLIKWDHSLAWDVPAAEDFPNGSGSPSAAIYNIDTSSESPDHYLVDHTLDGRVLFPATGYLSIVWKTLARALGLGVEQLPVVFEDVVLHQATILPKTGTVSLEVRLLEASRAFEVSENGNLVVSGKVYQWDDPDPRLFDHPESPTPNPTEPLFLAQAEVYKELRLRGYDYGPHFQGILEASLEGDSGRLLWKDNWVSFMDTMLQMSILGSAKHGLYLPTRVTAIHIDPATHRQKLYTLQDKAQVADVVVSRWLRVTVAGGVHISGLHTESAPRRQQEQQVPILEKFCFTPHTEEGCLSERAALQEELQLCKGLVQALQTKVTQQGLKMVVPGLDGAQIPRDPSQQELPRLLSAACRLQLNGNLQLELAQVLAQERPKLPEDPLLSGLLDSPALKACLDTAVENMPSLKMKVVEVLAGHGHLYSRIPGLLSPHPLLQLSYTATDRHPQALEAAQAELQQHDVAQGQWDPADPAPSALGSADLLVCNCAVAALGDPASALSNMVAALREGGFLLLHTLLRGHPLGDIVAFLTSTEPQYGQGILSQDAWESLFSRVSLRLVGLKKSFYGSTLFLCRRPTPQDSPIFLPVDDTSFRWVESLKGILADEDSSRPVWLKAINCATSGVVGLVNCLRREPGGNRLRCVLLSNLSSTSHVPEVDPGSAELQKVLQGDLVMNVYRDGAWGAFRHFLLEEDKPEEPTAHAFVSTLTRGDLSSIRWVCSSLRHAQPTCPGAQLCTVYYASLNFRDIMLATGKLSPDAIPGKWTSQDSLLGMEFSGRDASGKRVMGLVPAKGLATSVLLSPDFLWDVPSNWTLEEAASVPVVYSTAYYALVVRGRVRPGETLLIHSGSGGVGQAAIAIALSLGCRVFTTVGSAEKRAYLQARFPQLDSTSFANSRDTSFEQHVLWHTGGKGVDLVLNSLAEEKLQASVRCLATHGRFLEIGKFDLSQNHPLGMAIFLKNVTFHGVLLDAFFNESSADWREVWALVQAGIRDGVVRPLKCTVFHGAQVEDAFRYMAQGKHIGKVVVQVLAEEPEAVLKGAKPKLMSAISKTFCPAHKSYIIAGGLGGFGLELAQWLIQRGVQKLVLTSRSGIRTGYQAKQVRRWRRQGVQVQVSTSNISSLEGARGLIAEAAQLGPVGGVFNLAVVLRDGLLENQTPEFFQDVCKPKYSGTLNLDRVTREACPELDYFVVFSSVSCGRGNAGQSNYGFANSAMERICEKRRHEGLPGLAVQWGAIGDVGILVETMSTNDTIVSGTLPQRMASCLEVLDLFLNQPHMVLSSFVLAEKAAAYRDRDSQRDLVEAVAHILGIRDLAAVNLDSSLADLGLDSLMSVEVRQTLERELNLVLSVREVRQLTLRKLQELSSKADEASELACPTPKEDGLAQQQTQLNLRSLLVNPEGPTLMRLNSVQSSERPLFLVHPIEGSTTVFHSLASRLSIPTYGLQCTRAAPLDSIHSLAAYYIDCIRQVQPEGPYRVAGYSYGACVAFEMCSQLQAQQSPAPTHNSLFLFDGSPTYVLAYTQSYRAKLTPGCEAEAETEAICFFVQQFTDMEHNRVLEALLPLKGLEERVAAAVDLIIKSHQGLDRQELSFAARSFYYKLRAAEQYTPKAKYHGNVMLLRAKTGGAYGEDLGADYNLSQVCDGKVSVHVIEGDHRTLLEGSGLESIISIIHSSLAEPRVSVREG

[4] = molecular target: T2, Fatty acid synthase; test: FAS thioesterase domain inhibitors, dose response, biochemical, kinetic fluorescence intensity (AID 624326); format: functional;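 also: rate of fluorescence rise from hydrolysis of a fluorogenic O-methyl fluorescein ester substrate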
[5] = molecular target: Genome polyprotein (dengue virus type 2, UniProt P29990); test: Dengue-2 NS5 methyltransferase inhibitors, primary screen, biochemical, confirmation dose response (AID 588689); format: functional
Genome polyprotein, sequence (P29990 2492-3391 limits assumed): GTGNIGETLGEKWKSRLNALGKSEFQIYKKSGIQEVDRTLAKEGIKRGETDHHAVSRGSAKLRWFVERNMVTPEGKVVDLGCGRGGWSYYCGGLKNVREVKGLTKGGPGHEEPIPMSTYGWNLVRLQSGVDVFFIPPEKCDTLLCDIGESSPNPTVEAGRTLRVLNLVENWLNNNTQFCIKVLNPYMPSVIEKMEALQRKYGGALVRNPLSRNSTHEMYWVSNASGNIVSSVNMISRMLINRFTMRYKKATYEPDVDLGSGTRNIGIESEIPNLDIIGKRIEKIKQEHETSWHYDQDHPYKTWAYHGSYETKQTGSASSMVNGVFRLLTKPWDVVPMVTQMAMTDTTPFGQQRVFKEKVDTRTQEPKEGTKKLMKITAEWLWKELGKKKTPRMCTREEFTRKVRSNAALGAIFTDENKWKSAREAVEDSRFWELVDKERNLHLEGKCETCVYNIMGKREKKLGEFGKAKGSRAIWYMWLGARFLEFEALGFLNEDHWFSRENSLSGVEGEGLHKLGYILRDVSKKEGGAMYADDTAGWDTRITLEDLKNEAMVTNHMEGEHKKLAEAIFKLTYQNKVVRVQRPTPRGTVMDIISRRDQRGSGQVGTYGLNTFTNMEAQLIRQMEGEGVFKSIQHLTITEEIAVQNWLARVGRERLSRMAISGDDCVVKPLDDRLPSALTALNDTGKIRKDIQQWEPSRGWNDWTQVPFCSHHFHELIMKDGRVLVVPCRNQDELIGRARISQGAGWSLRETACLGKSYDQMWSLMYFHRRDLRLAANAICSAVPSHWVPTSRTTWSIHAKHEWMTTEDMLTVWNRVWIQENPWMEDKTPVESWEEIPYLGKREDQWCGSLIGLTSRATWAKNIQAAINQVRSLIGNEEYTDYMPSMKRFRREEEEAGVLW

[6] = inhibitors of intracellular T. cruzi replication, confirmation, NIH3T3 host cells, beta-gal luminescence (AID 2044); format: functional, cell-based;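 also: intracellular parasites grown in NIH/3T3 mouse fibroblasts as host cells; luminescent beta-galactosidase reporter signal from transgenic T. cruzi replicating inside host cells; inhibitors lower the luminescence signal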
[7] = cytotoxicity toward NIH3T3 fibroblasts, dose response, counter-screen, cell-based, ATP luminescence, mouse fibroblasts (AID 2010); format: functional;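 also: cells exposed to compound for about 90 hours before reading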
[8] = molecular target: T3, Short transient receptor potential channel 4 (Mus musculus, UniProt Q9QUQ5); test: mouse TRPC4 channel inhibitors, dose response, cell-based, HEK293 TRPC4/mu-opioid, Fluo-4 calcium (AID 434942); format: functional;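 also: potency of inhibitors blocking the TRPC4 calcium response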
T3 sequence (Q9QUQ5 whole entry): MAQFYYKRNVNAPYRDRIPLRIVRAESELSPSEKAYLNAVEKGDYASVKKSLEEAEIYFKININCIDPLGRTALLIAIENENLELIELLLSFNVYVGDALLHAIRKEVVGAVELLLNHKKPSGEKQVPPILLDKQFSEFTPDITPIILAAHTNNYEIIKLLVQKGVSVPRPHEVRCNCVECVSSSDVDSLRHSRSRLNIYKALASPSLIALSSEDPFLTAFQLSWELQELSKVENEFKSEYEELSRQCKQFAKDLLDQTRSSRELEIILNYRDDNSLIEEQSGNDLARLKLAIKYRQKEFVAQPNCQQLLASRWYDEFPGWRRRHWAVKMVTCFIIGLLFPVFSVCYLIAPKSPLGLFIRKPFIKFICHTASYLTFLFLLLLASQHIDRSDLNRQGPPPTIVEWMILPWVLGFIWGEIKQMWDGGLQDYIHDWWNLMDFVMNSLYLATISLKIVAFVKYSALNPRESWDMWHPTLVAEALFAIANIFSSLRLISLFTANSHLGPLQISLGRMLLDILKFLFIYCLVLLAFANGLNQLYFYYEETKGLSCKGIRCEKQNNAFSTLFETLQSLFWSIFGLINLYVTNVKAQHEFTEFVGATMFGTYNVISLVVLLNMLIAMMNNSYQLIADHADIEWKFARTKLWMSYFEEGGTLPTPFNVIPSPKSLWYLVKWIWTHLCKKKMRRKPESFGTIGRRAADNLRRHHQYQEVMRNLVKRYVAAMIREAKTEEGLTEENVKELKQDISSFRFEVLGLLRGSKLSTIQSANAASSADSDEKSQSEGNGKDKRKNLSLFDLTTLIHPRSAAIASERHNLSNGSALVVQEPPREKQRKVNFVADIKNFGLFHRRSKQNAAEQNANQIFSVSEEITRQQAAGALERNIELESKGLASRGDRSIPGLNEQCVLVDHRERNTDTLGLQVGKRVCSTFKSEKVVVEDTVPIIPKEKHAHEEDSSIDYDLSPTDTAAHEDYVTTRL

[9] = test system: P388/ADR; test: cells; format: functional; details: Mus musculus
[10] = test system: SN12K1; test: cells; format: functional; details: Homo sapiens
[11] = test system: P388; test: cells; format: functional; details: Mus musculus
[12] = Luminescence Cell-Based Dose Confirmation HTS to Identify Activators of 5'UTR Stem-Loop Driven Alpha-Synuclein mRNA Translation in H4 Neuroglioblastoma Cells. [Related pubchem assays: 1829 (Project Summary), 1814 (Primary HTS)]; format: functional
[13] = Luminescence Cell-Based Dose Response HTS to Identify Activators of Luciferase Translation or Activity in H4 […] Cells. [Related pubchem assays: 1829 (Project Summary), 1814 (Primary HTS)]; format: functional
[14] = cells; format: functional, cell-based
[15] = test system: H4; test: Luminescence Cell-Based Dose Response HTS to Identify Activators of 5'UTR Stem-Loop Driven Prion Protein mRNA Translation in H4 Neuroglioblastoma Cells. [Related pubchem assays: 1829 (Project Summary), 1814 (Primary HTS)]; format: functional; details: Homo sapiens
[16] = cells; format: functional, cell-based; remark: listed apart in the source
[17] = Shn3 3'UTR reporter inhibitors, dose response, cell-based, Clone20 osteoblasts, firefly luciferase, cherry-picked (AID 624132); format: functional;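 also: firefly luciferase luminescence from reporter carrying the Shn3 3'UTR in osteoblasts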
[18] = control 3'UTR Renilla luciferase suppression, dose response, counter-screen for Shn3 inhibitor project, cell-based, Clone20-Shn3RL, cherry-picked (AID 624133); format: functional
[19] = molecular target: T4, Carboxy-terminal domain RNA polymerase II polypeptide A small phosphatase 1 (Homo sapiens, UniProt Q9GZU7); test: inhibitors of CTDSP1, concentration-response testing, biochemical assay, absorbance-based, actives from ultra-high-throughput screening (AID 540297); format: functional
T4 sequence (Q9GZU7 whole entry): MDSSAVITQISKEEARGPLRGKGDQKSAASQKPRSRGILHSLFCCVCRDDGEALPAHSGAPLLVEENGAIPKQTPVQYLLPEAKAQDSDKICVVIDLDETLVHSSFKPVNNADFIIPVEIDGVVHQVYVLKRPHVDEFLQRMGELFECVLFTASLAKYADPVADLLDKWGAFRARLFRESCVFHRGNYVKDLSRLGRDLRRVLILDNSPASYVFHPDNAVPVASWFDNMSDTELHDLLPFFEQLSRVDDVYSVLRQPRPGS

## O=C(COC(=O)CCc1c[nH]c(O)n1)Nc1ccccc1
[1]
  IC50: > 66 µM (inactive)
[2]
  IC50: 44.9 µM (inactive)

## CC(C)(C)c1ccc(C(=O)N2CCC2(C)C(=O)Nc2cccc(C#N)c2)cc1 (stereo not given)
[3]
  IC50: 5.47 µM (active)
[4]
  IC50: 7.78 µM (active)

## O=C1NC(=S)N/C1=C/C=C/c1ccccc1
[5]
  IC50: 99.8 µM (active)

## Fc1ccccc1COc1ccccc1CNCc1ccncc1
[6]
  EC50: 1.45 µM (active)
[7]
  EC50: > 60 µM (not active)
[8]
  EC50: 7.5 µM (active)

## COc1cc(O)c2c(c1)C(=O)c1cc3c(c(O)c1C2=O)C(OC1OC(C)C(O)C(O)C1OC)C(OC)C(C)(O)C3=O (stereo not given)
[9]
  GI50: 7.59 µM (inactive)
[10]
  GI50: 2.42 µM (inactive)
[11]
  GI50: 5.66 µM (inactive)

## Cc1cc(C)n2cc(CSc3nnc(N)s3)nc2n1
[1]
  IC50: > 66 µM (inactive)
[2]
  IC50: > 66 µM (inactive)

## CN(C)c1nc2n(c(=O)n1)C(C#N)CS2 (stereo not given)
[1]
  IC50: > 66 µM (inactive)
[2]
  IC50: > 66 µM (inactive)

## O=C(NC(=S)Nc1ccccc1)c1cc([N+](=O)[O-])ccc1N1CCOCC1
[3]
  IC50: 17.2 µM (active)
[4]
  IC50: 8.19 µM (active)

## COC(=O)C1C(O)C(C)C(O)OC1C(C)C(O)C(C)/C=C\C=C(/C)C(=O)Nc1c(C)c(OC(C)=O)c2c(c1O)C(=O)C(C)=C1OCOC(/C(C)=C/C(C)=O)=C12 (stereo not given)
[9]
  GI50: 13.2 µM (inactive)
[10]
  GI50: 13.3 µM (inactive)
[11]
  GI50: 1.93 µM (inactive)

## C#CCOc1ccc(/C=C2/C(=O)ON=C2C)cc1Cl
[5]
  IC50: 97.1 µM (active)

## CCCNC(=O)c1cc(-c2ccco2)on1
[12]
  EC50: 13.7 µM (active)
[13]
  EC50: 59.3 µM (active)
[14]
  EC50: 10 µM (active)
[15]
  EC50: 50.4 µM (active)
[16]
  EC50: > 350 µM (not active)

## CC[C@@]1(O)C[C@H](OC2CC(N(C)C)C(O)C(C)O2)c2c(cc3c(c2O)C(=O)c2c(O)ccc(O)c2C3=O)[C@H]1C(=O)OC (stereo not given in full)
[9]
  GI50: 0.0175 µM (active)
[10]
  GI50: 0.0328 µM (active)
[11]
  GI50: 0.0175 µM (active)

## O=C1Nc2ccc(Cl)cc2C12Nc1ccccc1-c1nnc(SCc3ccccc3F)nc1O2 (stereo not given)
[5]
  IC50: 43.2 µM (active)

## O=Cc1c(Cn2ccnc2)c2cc([N+](=O)[O-])ccc2n1Cc1ccccc1
[9]
  GI50: 63 µM (inactive)
[10]
  GI50: 50.8 µM (inactive)
[11]
  GI50: 40.8 µM (inactive)

## CC(OCC(O)CN(C)CCOc1ccccc1)c1ccc(Cl)cc1 (stereo not given)
[8]
  EC50: 3.76 µM (active)

## O=C(NC(Cc1ccc(I)cc1)C(=O)O)c1ccc(Cl)cc1 (stereo not given)
[9]
  GI50: 62.1 µM (inactive)
[10]
  GI50: > 100 µM (inactive)
[11]
  GI50: 72.4 µM (inactive)

## CCOC(=O)c1c(NC(=O)CCC(=O)O)sc2c1CCCCC2
[14]
  EC50: > 350 µM (not active)
[16]
  EC50: 24.5 µM (active)

## CCc1cccc(CC)c1NC(=O)CSc1nnc(CCC(=O)O)c(O)n1
[1]
  IC50: > 66 µM (inactive)
[2]
  IC50: > 66 µM (inactive)

## CCN(CC)CCNc1ccc(CO)c2sc3ccccc3c(=O)c12 [HYCANTHONE MESYLATE]
[9]
  GI50: 7.35 µM (inactive)
[10]
  GI50: 7.43 µM (inactive)
[11]
  GI50: 2.94 µM (inactive)

## CCC(C)CCCCCCCCCCC(=O)O (stereo not given)
[5]
  IC50: 42 µM (active)

## CCN(CCCCCN(C)C)Cc1cc2ccccc2o1
[14]
  EC50: > 350 µM (not active)
[16]
  EC50: > 350 µM (not active)

## CC(=O)Nc1cccc(NC(=O)CS(=O)(=O)c2cn(CC(=O)N3CCOCC3)c3ccccc23)c1
[14]
  EC50: > 350 µM (not active)
[16]
  EC50: > 350 µM (not active)

## COc1ccccc1-n1cc(-c2ccc([N+](=O)[O-])cc2)nc1S
[1]
  IC50: > 66 µM (inactive)
[2]
  IC50: > 66 µM (inactive)

## CCOC(=O)c1sc(=S)n(-c2ccc3c(c2)OCO3)c1N
[1]
  IC50: > 66 µM (inactive)
[2]
  IC50: > 66 µM (inactive)

## O=S(=O)(O)c1ccc(/N=N\c2ccc(/N=N\c3ccc(/C=C/c4ccc(/N=[N+](/[O-])c5ccc(/C=C/c6ccc(/N=N/c7ccc(/N=N\c8ccc(S(=O)(=O)O)cc8)cc7)cc6S(=O)(=O)O)c(S(=O)(=O)O)c5)cc4S(=O)(=O)O)c(S(=O)(=O)O)c3)cc2)cc1
[9]
  GI50: > 100 µM (inactive)
[10]
  GI50: > 100 µM (inactive)
[11]
  GI50: > 100 µM (inactive)

## Cc1ccc([C@@H]2CC=C(C(=O)O)[C@H](c3ccc(Br)cc3)N2S(=O)(=O)c2ccc(C)cc2)cc1
[5]
  IC50: 42.5 µM (active)

## CCCCCCCCCCCCCCCCNCC(O)CN (stereo not given)
[9]
  GI50: 2.05 µM (inactive)
[10]
  GI50: 1.77 µM (inactive)
[11]
  GI50: 1.95 µM (inactive)

## O=C(O)c1cn2c3c(cc(N4CCN(CCO)CC4)cc3c1=O)SCC2
[9]
  GI50: > 100 µM (inactive)
[10]
  GI50: 40.5 µM (inactive)
[11]
  GI50: 61.5 µM (inactive)

## O=C(O)c1ccc2c(c1)NC(=O)C(N1CCCC1)S2 (stereo not given)
[1]
  IC50: > 66 µM (inactive)
[2]
  IC50: 55.5 µM (inactive)

## COC(=O)c1cc(C(=O)NC(C)C2CC3CCC2C3)cc([N+](=O)[O-])c1 (stereo not given)
[4]
  IC50: 11.5 µM (active)

## CC(C)(C)c1ccc(N2C(=O)CC(C/C=C/c3ccccc3)C2=O)cc1 (stereo not given)
[14]
  EC50: > 350 µM (not active)
[16]
  EC50: > 350 µM (not active)

## O=C(Nc1ccccc1)N(C1=NCCCCS1)c1cccc2ccccc12
[14]
  EC50: > 350 µM (not active)
[16]
  EC50: 43.7 µM (active)

## CCN(c1ccccc1)S(=O)(=O)c1ccc(Cl)c(NC(=O)CN(C)Cc2cccc(F)c2)c1
[17]
  AC50: 8.78 µM (active)
[18]
  AC50: 6.46 µM (active)

## Cc1cccc(C(=O)Oc2ccc(/C=N/NC(=O)c3cc(O)cc(O)c3)cc2)c1
[19]
  IC50: 4.14 µM (active)

## Cc1ccccc1NC(=O)CSc1nnc(C)c(O)n1
[1]
  IC50: > 66 µM (inactive)
[2]
  IC50: > 66 µM (inactive)
